The test system of test [1] is human fetal cardiac fibroblasts. Nature of the test: Quantitative assay of [3H]valine-labeled insoluble elastin. The format is cell-based. The settings on record: for effect on aldosterone-induced increase in insoluble elastin production: agent added 1 hour before aldosterone (50 nM or 1 to 50 nmol/L).
Test [2] shares this test system. Kind of test: Immunostaining of collagen type I fibers in confluent cultures. The format is cell-based. The settings on record: pretreatment before 1 to 50 nmol/L aldosterone; RU 486 1 μmol/L; FIG. 1.
Test [3] shares this test system. Nature of the test: One-step RT-PCR of collagen type I mRNA in cardiac fibroblast cultures. The format is cell-based. The settings on record: 1 hour pretreatment before 1 to 50 nmol/L aldosterone; spironolactone 2 μmol/L, RU 486 1 μmol/L.
The subject of test [4] is adult human cardiac fibroblasts. Kind of test: One-step RT-PCR of elastin mRNA in adult cardiac fibroblasts. The format is cell-based. To be noted: 1 hour pretreatment before aldosterone.
Test [5] concerns human fetal cardiac fibroblasts. Kind of test: Quantitative assay of [3H]valine-labeled immunoprecipitable tropoelastin. The format is cell-based. To be noted: spironolactone with 1 to 50 nmol/L aldosterone, 72 hours. Here is the method: Fetal human cardiac fibroblasts were grown to confluence in 35-mm culture dishes (100,000 cells/dish) in quadruplicate. […] Cultures were incubated for 72 hours, and the soluble and insoluble elastin were assessed separately in each dish. The cells were extensively washed with phosphate-buffered saline, and the soluble proteins present in the intracellular compartments were extracted overnight at 4° C. with 0.1 mol/L acetic acid in the presence of proteinase inhibitors. After centrifugation, the supernatants were precleaned by 30-minute incubation with 50 μl of 4% protein A-beaded agarose, and then 500 μl of the supernatant was incubated with 5 μg of polyclonal antibody to tropoelastin for 2 hours and subsequently with 50 μl of 4% protein A-beaded agarose for 3 hours at 4° C. The protein A-containing beads were sedimented by centrifugation, washed with immunoprecipitation buffer, mixed with scintillation fluid, and counted. […] The resulting pellets containing the insoluble elastin were then solubilized by boiling in 200 μl of 5.7 N HCl for 1 hour, and the aliquots were mixed in scintillation fluid and counted. […] Final results reflecting amounts of metabolically labeled insoluble elastin in individual cultures were normalized per their DNA content and expressed as counts per minute per 1 μg of DNA.

In test [6] the test system is adult human cardiac fibroblasts. Kind of test: Anti-elastin immunostaining in adult cardiac fibroblasts. The test is classed as cell-based. To be noted: spironolactone pretreatment. The procedure: Control cell cultures received an equal amount of the solvent vehicle. […] ScienCell (San Diego, Calif.). At the end of the 72-hour incubation period with the indicated treatment, confluent cultures were either fixed in ice-cold 100% methanol at -20° C. […] The cultures were then incubated for 1 hour with 10 μg/ml polyclonal antibody to tropoelastin or with 10 μg/ml polyclonal antibody to collagen type I. All cultures were then incubated for an additional hour with fluorescein-conjugated goat anti-rabbit or with fluorescein-conjugated rabbit anti-goat secondary antibodies to detect elastin and collagen type I staining, respectively. Nuclei were counterstained with propidium iodide. Secondary antibody alone was used as a control. All of the cultures were then mounted in Elvanol and examined with a Nikon Eclipse […] microscope attached to a cooled charge-coupled device camera (Retiga EX; QImaging, Surrey, BC, Canada) and a computer-generated video analysis system (Image-Pro Plus software; Media Cybernetics, Silver Spring, Md.).

Test [7] concerns human fetal cardiac fibroblasts. Kind of test: One-step RT-PCR of elastin mRNA in cardiac fibroblast cultures. The format is cell-based. To be noted: for effect on aldosterone-induced increase in elastin mRNA levels: agent added 1 hour (CT04 2 hours) before aldosterone.
A further test relates to IGF-IR. Kind of test: IGF-IR immunoprecipitation and anti-phosphotyrosine blot. The test is classed as cell-based, human. The procedure: Cells were lysed using an radioimmunoprecipitation assay buffer [50 mmol/L Tris-HCl, pH 7.4, 150 mmol/L NaCl, 1 mmol/L ethylenediamine tetraacetic acid, 10 mmol/L NaF, 1% Triton X-100, 0.1% sodium dodecyl sulfate, 1% sodium deoxycholate containing a cocktail of antiproteases (20 μg/ml leupeptin, 10 μg/ml aprotinin, 0.1 mmol/L phenylmethylsulfonyl fluoride, and 1 mmol/L dithiothreitol) and antiphosphates ([…] orthovanadate and 2 μg/ml pepstatin)], and 300 μg of protein extract was incubated with an antibody against IGF-IRβ for 1 hour at 4° C., followed by the addition of 4% protein A-beaded agarose left overnight, as previously described. The resulting protein-antibody conjugate was centrifuged at 4° C. and washed four times with phosphate-buffered saline. The final pellet was resuspended in sample buffer (0.5 mol/L Tris-HCl, pH 6.8, 10% sodium dodecyl sulfate, 10% glycerol, 4% 2-B-mercaptoethanol, and 0.05% bromphenol blue), and the mixture was boiled for 5 minutes. Proteins were resolved by 12% sodium dodecyl sulfate-polyacrylamide gel electrophoresis, transferred to nitrocellulose membranes, and then immunoblotted with anti-p-Tyr or anti-IGF-IR antibodies. The degree of expression or phosphorylation of immunodetected signaling molecules was measured by densitometry.
At the end of each experiment the cells were lysed as specified above, and 300 μg of protein extract were then precleared for 1 hour with normal rabbit agarose conjugated-IgG at 4° C. and incubated with rabbit polyclonal antibodies against IGF-IR-β, c-Src, or with Gα13 for 1 hour at 4° C., followed by the addition of 4% protein A-beaded agarose and left overnight. The resulting protein-antibody conjugate was centrifuged at 4° C. and washed four times with PBS. The final pellet was resuspended in sample buffer, and the proteins were resolved. Following immunoprecipitation of IGF-IR-β, the membrane was immunoblotted using monoclonal anti-p-Tyr antibody, stripped, and reprobed using anti-IGF-IR-β. Following immunoprecipitation of c-Src, the membranes were immunoblotted using polyclonal goat antibodies against anti-Gα13, while those immunoprecipitated with anti-Gα13 were developed with monoclonal anti-c-Src antibody. Blots were stripped and re-probed for equal loading.
The degree of expression or phosphorylation of immunodetected signaling molecules was measured by densitometry.

The next test deals with Gα13 and c-Src. Kind of test: Co-immunoprecipitation of Gα13 and c-Src. The test is classed as cell-based, human. To be noted: vs untreated controls.
[8] abbreviates: agent added before aldosterone, readout not specified, partly data not shown.

“Also recorded” adds a separate entry of the source. Like-named read-outs stand apart in the source and are kept apart here.

Turning to `NC(=O)c1ccc(-c2nc(-c3ccc4c(c3)OCO4)c(-c3ccccn3)[nH]2)cc1` [SB 431542], the “effect on aldosterone-induced increase in elastin production (elastogenic response)” value in test [1] (setting [8]) is reported as “did not affect the aldosterone-induced increase in elastin production”.
`COc1cccc(-c2cc(=O)c3ccccc3o2)c1N` [PD 98059]: the “insoluble elastin production, inhibitor alone” value in test [1] (10 μM, 72 hours, 10% FBS, vs untreated control) is “significantly increased insoluble elastin production”. In addition, the “effect on aldosterone-induced increase in insoluble elastin production” value in test [1] (72 hours) is on record as “did not eliminate the elastogenic effect of aldosterone but instead led to a further increase in the production of elastin; also recorded: further increased insoluble elastin production”.
With `CC(=O)S[C@@H]1CC2=CC(=O)CC[C@]2(C)[C@H]2CC[C@@]3(C)[C@@H](CC[C@@]34CCC(=O)O4)[C@H]12` [spironolactone], in test [2], the “effect on aldosterone-induced collagen production” value is reported as “abrogated aldosterone-induced collagen production; also recorded: eliminated any aldosterone-induced increase in collagen type I production”. For the same compound, in test [3], the “effect on aldosterone-induced increase in collagen type I mRNA levels” value is reported as “returned the aldosterone-induced increase in collagen type I mRNA levels to untreated values”. The “effect on aldosterone-induced increase in elastin mRNA, adult cardiac fibroblasts” value in [4] is listed as “had no effect on the aldosterone-induced increase in elastin mRNA transcript levels”. In addition, the “effect on aldosterone-induced increase in insoluble elastin production” value in test [1] (72 hours) is recorded as “failed to prevent; also recorded: did not eliminate the increase in insoluble elastin production”. In [5], the “effect on aldosterone-induced increase in tropoelastin production” value is listed as “failed to prevent; also recorded: did not abrogate the increase in tropoelastin production”. The “effect on aldosterone-induced increase in elastic fiber deposition, adult cardiac fibroblasts” value in [6] is “did not affect aldosterone-induced increase in elastic fiber deposition”. In test [7] (24 hours), the “effect on aldosterone-induced increase in elastin mRNA levels” value was “failed to prevent an aldosterone-induced increase in elastin mRNA expression; also recorded: neither spironolactone nor RU 486 eliminated this increase”.
As for “IGF-I: recombinant human insulin-like growth factor-I”, the “tyrosine phosphorylation of the IGF-IR” value with IGF-IR (10-minute exposure, 10% fetal bovine serum, aldosterone or BSA-conjugate 50 nM, IGF-I 100 ng/ml) is given as “produced a very similar effect”. Also, the “tyrosine phosphorylation of the IGF-IR, dependence on serum” value in the test with IGF-IR (presence vs absence of fetal bovine serum) was “induced phosphorylation of its IGF-IR, both in the presence and in the absence of fetal bovine serum”. For the same compound, in test [1] (100 ng/ml IGF-I, 72 hours), the “net production of insoluble elastin” value was “approximately threefold increase”. Further, the “elastin mRNA levels” value in [7] (100 ng/ml IGF-I, 24 hours) is listed as “approximately threefold increase”.
For `CC#C[C@]1(O)CC[C@H]2[C@@H]3CCC4=CC(=O)CCC4=C3[C@@H](c3ccc(N(C)C)cc3)C[C@@]21C` [RU 486, mifepristone], in test [2], the “effect on aldosterone-induced collagen production” value is “but not with the glucocorticoid receptor (GR) antagonist RU 486 (1 μmol/L), abrogated aldosterone-induced collagen production”. Further, the “effect on aldosterone-induced increase in collagen type I mRNA levels” value in test [3] was “had no effect on the aldosterone-induced increase in collagen type I mRNA transcript levels”. Moreover, in test [7] (24 hours), the “effect on aldosterone-induced increase in elastin mRNA levels” value is recorded as “had no effect on the aldosterone-induced increase in elastin mRNA levels; also recorded: neither spironolactone nor RU 486 eliminated this increase”.
For the compound `Cc1cc(Cn2cnc3c2C[C@@H](C(=O)O)N(C(=O)C(c2ccccc2)c2ccccc2)C3)ccc1N(C)C` [PD 123319], the “effect on aldosterone-induced increase in elastin production (elastogenic response)” value in test [1] (setting [8]) is “did not abrogate their elastogenic response to aldosterone”.
On to pertussis toxin, for which the “effect on aldosterone-induced increase in insoluble elastin production” value in test [1] (72 hours) is recorded as “did not inhibit the elastogenic effect of aldosterone”. Besides, the “effect on aldosterone-induced increase in elastin production (elastogenic response)” value in test [1] (setting [8]) was “did not abrogate the aldosterone-induced increase in elastin production; also recorded: does not attenuate the pro-elastogenic effect of aldosterone”.
Take “CT04: cell-permeable Rho inhibitor (exoenzyme C3 transferase) from Cytoskeleton, Inc.”: in [1] (setting [8]), the “effect on aldosterone-induced increase in elastin production (elastogenic response)” value was “did not eliminate the aldosterone-induced increase in elastin mRNA expression and elastin production”. Besides, the “effect on aldosterone-induced increase in elastin mRNA levels” value in test [7] (24 hours) was “did not eliminate the aldosterone-induced increase in elastin mRNA expression”.
Regarding `CCCCc1nc(Cl)c(CO)n1Cc1ccc(-c2ccccc2-c2nn[nH]n2)cc1` [losartan, Losartan], the “effect on aldosterone-induced increase in elastin production (elastogenic response)” value in [1] (setting [8]) is “did not abrogate their elastogenic response to aldosterone”.
For `CN[C@@H]1C[C@H]2O[C@@](C)([C@@H]1OC)n1c3ccccc3c3c4c(c5c6ccccc6n2c5c31)C(=O)NC4` [staurosporine], the “effect on aldosterone-induced increase in elastin production (elastogenic response)” value in test [1] was “did not abrogate the aldosterone-induced increase in elastin production”.
In the case of `COc1cc2ncnc(Nc3cccc(Cl)c3)c2cc1OC` [AG 1478], the “effect on aldosterone-induced increase in elastin production (elastogenic response)” value in test [1] (setting [8]) is on record as “did not affect the aldosterone-induced increase in elastin production”.
Regarding `C[C@@H](N)[C@H]1CC[C@H](C(=O)Nc2ccncc2)CC1` [Y-27632], in [1] (setting [8]), the “effect on aldosterone-induced increase in elastin production (elastogenic response)” value was “did not eliminate the aldosterone-induced increase in elastin mRNA expression and elastin production”. Moreover, the “effect on aldosterone-induced increase in elastin mRNA levels” value in test [7] (24 hours) is “did not eliminate the aldosterone-induced increase in elastin mRNA expression”.
With `Cc1cc2ncc(-c3ccccc3)nc2cc1C` [AG 1295], the “effect on aldosterone-induced increase in elastin production (elastogenic response)” value in test [1] (setting [8]) is “did not affect the aldosterone-induced increase in elastin production”.
In the case of `CC(C)(C)c1cc(C=C(C#N)C#N)cc(Br)c1O` [AG 1024], the “effect on aldosterone-induced increase in insoluble elastin production” value in test [1] (72 hours) is “eliminated the stimulatory effect of aldosterone on elastin mRNA expression and insoluble elastin production; also recorded: returned insoluble elastin production to control values”. In addition, the “effect on IGF-I-induced increase in insoluble elastin production” value in test [1] (pretreatment or siRNA transfection before 100 ng/ml IGF-I, 72 hours) was “could be prevented; also recorded: returned insoluble elastin production to control values”. Also, in test [7] (24 hours), the “effect on aldosterone-induced increase in elastin mRNA levels” value was “eliminated the stimulatory effect of aldosterone on elastin mRNA expression; also recorded: abolished aldosterone- and IGF-I-induced increases in elastin mRNA transcript levels”. Besides, the “effect on IGF-I-induced increase in elastin mRNA levels” value in test [7] (pretreatment or siRNA transfection before 100 ng/ml IGF-I) was “could be prevented; also recorded: abolished aldosterone- and IGF-I-induced increases in elastin mRNA transcript levels”.
As to aluminum fluoride, in the test on Gα13 and c-Src, the “interaction between c-Src and Gα13” value is “increased the interaction between c-Src and Gα13”.

The values above are taken from US9283236B2 (HUMAN MATRIX SCIENCES, LLC, priority 2008, dated 2016).
